US20180078561A1 (LAM Therapeutics, Inc., priority 2015, published 2018)
Entries after “also recorded” stand apart in the source; their conditions may differ. Like-named read-outs stand apart in the source and are kept apart here. Blank lines part the entries; values can stand above or below the compound they belong to.

Assays:
[1] = system: cancer cell line; assay: vacuolization of cells; format: cell-based; details: for vacuolation in cells: at concentrations comparable to apilimod
From the text: PIKfyve is associated with the cytosolic leaflet of early endosomes and its activity is required for endomembrane homeostasis, endolysosomal function and proper retrograde transport from the endosome to the trans-Golgi network. Introduction of a kinase dead mutant into cells induces a swollen vacuole phenotype that can be rescued by the injection of PI(3,5)P2. Inhibition of PIKfyve by pharmacological methods as well as RNAi also produces swollen vacuoles and disruption of endomembrane dynamics.
Introduction of a kinase dead mutant into cells induces a swollen vacuole phenotype that can be rescued by the injection of PI(3,5)P2. Inhibition of PIKfyve by pharmacological methods as well as RNAi also produces swollen vacuoles and disruption of endomembrane dynamics.

[2] = target: T1, PIKfyve (Homo sapiens, UniProt Q9Y2I7); assay: dissociation constant (Kd) study; format: binding; details: 0.05-3000 nM, duplicate
T1 construct: purchased DiscoveRx, Fremont, Calif
T1 sequence (Q9Y2I7 whole entry): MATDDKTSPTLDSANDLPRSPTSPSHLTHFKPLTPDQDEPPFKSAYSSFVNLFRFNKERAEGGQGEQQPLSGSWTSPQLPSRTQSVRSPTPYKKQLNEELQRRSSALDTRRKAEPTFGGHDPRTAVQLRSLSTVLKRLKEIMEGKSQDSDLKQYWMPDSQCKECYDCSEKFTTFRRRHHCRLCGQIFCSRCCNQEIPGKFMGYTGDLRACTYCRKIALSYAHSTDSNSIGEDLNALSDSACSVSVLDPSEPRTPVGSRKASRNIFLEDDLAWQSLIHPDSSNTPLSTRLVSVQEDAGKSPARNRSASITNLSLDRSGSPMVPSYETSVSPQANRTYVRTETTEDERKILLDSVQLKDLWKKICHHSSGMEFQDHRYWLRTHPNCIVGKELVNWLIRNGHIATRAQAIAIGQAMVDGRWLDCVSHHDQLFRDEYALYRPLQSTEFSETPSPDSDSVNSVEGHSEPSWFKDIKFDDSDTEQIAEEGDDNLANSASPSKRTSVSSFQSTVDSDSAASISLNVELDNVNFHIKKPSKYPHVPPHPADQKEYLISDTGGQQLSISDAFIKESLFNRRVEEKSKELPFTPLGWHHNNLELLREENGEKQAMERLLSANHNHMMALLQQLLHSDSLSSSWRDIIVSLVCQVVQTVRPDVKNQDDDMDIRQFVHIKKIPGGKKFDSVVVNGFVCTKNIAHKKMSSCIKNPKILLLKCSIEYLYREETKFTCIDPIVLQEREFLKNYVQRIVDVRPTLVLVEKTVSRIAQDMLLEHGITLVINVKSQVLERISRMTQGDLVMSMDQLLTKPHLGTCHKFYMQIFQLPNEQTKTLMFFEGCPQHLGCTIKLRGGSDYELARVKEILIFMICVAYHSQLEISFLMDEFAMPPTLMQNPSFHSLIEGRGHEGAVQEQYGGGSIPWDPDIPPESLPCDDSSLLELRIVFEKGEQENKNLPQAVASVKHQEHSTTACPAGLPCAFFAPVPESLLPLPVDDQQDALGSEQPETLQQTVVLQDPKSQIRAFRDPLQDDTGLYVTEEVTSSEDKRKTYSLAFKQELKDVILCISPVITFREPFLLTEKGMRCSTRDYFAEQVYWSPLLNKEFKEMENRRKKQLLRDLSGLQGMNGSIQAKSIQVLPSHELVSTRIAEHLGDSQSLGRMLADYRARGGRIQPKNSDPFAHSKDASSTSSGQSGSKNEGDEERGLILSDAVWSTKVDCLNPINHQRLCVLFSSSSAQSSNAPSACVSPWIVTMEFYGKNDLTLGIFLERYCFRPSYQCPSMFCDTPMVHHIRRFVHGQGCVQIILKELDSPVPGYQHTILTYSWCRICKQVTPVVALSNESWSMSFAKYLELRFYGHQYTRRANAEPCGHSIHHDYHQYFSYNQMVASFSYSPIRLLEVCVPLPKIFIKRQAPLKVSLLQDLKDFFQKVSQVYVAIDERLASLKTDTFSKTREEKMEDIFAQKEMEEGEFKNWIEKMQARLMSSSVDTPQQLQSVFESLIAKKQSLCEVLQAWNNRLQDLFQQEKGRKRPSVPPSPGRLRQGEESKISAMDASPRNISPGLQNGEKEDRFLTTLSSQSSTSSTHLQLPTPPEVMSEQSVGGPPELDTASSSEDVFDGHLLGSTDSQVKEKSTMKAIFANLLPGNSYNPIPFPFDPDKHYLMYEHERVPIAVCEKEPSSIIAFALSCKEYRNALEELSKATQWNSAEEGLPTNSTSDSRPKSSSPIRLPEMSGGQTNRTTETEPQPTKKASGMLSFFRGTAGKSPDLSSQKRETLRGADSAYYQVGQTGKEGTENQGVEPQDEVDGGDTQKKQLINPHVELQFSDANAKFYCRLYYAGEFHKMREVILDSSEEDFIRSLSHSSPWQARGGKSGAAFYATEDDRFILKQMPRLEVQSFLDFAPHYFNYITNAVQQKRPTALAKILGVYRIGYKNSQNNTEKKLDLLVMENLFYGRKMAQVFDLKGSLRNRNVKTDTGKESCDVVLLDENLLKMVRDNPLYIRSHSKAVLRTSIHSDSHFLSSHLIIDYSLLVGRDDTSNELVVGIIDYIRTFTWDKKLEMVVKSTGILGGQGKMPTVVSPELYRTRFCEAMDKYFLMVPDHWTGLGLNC
Description: A dissociation constant (Kd) study was performed using the 3 compounds at increasing concentrations (0.05-3000 nM) against PIKfyve.

[3] = system: WSU-DLCL2 cells; assay: anti-proliferative activity normalized to apilimod (plasma concentration factors); format: cell-based, Human; details: data from WSU-DLCL2 cells
[4] = plasma protein binding; format: in vitro ADME; details: rat plasma proteins
[5] = plasma protein binding; format: in vitro ADME; details: dog plasma proteins
[6] = plasma protein binding; format: in vitro ADME; details: human plasma proteins
[7] = system: H4; assay: cell viability (CellTiterGlo), apilimod sensitivity; format: cell-based; details: Homo sapiens, Human neuroglioma
From the text: (§1) 35 cell lines were identified as sensitive to apilimod-induced cytotoxicity.

[8] = system: MEF-EV (TSC2−/− MEF); assay: 10-point dose response, cell viability (CellTiter-Glo); format: cell-based; details: Mus musculus; cell type MEF TSC2 −/− (MEF-EV); 72 h; average of two experiments
From the text: TSC2 null cells have constitutively active mTOR. Briefly, MEF cells derived from TSC2−/− knockout mouse embryos (Onda et al., J. Clin. Invest. 104(6):687-95, 1999) were infected with a retrovirus vector encoding the hygromycin antibiotic resistance gene (MEF-EV) or the same retrovirus vector also encoding TSC2 (MEF-TSC2). The MEF-EV and MEF-TSC2 line were then established by hygromycin selection.
See e.g., Zhang et al. J. Clin. Invest. 112, 1223-33, 2003. (2) ELT3-EV and ELT3-TSC2 lines were established from the ELT3 rat tumor cell line. The ELT3 line is an established rat tumor model for LAM/TSC. See e.g., Howe et al., Am. J. Path. 146, 1568-79, 1995. These cells harbor an inactivating mutation in TSC2, which leads to constitutive activation of the mTOR pathway. To develop an isogenic pair of cells ELT3 cells were infected with a retrovirus vector encoding the hygromycin antibiotic resistance gene (ELT3-EV) or the same retrovirus vector also encoding TSC2 (ELT3-TSC2). The ELT3-EV and ELT3-TSC2 line were then established by hygromycin selection. […] The cells were infected with amphotropic retrovirus LXSN16E6E7 that encodes the HPV16 E6 and E7 open reading frames and neomycin resistance cassette. […]
IC50 values were then calculated from the dose response curves using XLFIT (IDBS).

[9] = system: (TSC2−/−, p53−/−) MEF; assay: as above; format: cell-based; details: Mus musculus; cell type MEF TSC2 −/− p53 −/−; 72 h; average of two experiments
[10] = system: TRI-AML102 (TSC2 null AML); assay: as above; format: cell-based; details: Homo sapiens; cell type AML (head: AML TSC2 +/− p53 −/−); 72 h; average of two experiments
[11] = system: ELT3-EV; assay: as above; format: cell-based; details: Rattus norvegicus; cell type ELT3 (ELT3-EV); 72 h; average of two experiments; read-out: IC50 TSC2 −/−
[12] = system: Normal lung fibroblasts; assay: cytotoxicity on normal cells; format: cell-based; details: concentrations as high as 10 micromolar
From the text: as §1

[13] = system: 122 human cancer cell lines; assay: cancer cell line screen for sensitivity to apilimod; format: cell-based; details: sensitive if IC50 less than 500 nM
From the text: as §1
The most sensitive of those tested were non-Hodgkin's Lymphoma (NHL) cell lines. […] NHL represents a diverse group of hematopoietic malignancies that vary in severity, with subtypes ranging from slow growing to aggressive. Subtypes of NHL include diffuse large B cell lymphoma (DLBCL), Burkitt's lymphoma, mantle lymphoma, and follicular B cell lymphoma. DLBCL is divided into two subtypes, GCB and ABC, based on gene expression and cell of origin. The GCB are germinal center B cell type, arising from normal germinal center B cells, and the ABC are activated B cell type, arising from post-germinal center B cells in the process of differentiating into plasma cells.

[14] = system: diffuse large B cell lymphoma cells; assay: Apotox-Glo Triplex assay; format: cell-based; details: 48 hours after addition
Description: Apoptosis was quantified and distinguished from necrosis using the Apotox-Glo Triplex assay (Promega, Inc.) according to the manufacturer's instructions. In this assay, viability, apoptosis, and necrosis are assessed simultaneously using three different markers (GF-AFC, Caspase-3/7, and bis-AAF-R110, respectively).

[15] = system: H4 neuroglioma cell line; assay: Cyto-ID Autophagy detection; format: cell-based, Human; details: 72 hours of treatment
From the text: Autophagy was quantified using the Cyto-ID Autophagy detection kit (Enzo) according to manufacturer's directions.

[16] = system: SUDHL-4 cells; assay: drug library screen with and without apilimod, cell viability; format: cell-based; details: Homo sapiens, SU-DHL-4
From the text: A manually curated library of 93 drugs including both FDA approved and unapproved drugs was used in the screen.
Ibrutinib is an FDA-approved drug targeting B-cell malignancies and indicated for monotherapy in treating mantle cell lymphoma and chronic lymphocytic leukemia. It is also known as PCI-32765 and marketed under the trade name Imbruvica™. […] BTK is a key mediator of at least three critical B-cell pro-survival mechanisms occurring in parallel-regulation of apoptosis, cell adhesion and cell migration and homing.

[17] = for Apilimod Ave. Plasma Conc.: Day 7; for sustained blood concentration of apilimod: measured at 24 h
[18] = system: peripheral blood mononuclear cells; details: Wada et al., Blood 109, 2007; cited from earlier work
[19] = system: U937; details: WO 2006/128129; cited from earlier work
[20] = system: HELA; details: WO 2006/128129; cited from earlier work
[21] = system: Jurkat; details: WO 2006/128129; cited from earlier work
[22] = system: THP-1; details: WO 2006/128129; cited from earlier work
[23] = system: Yulac614 melanoma cells; assay: drug combination screen and validation, cell viability
[24] = human plasma profile of apilimod and metabolites; format: in vivo; details: oral 105 mg doses of apilimod free base, given 10 hr apart

Kd [2]: 0.088 nM
Structure (SMILES): Cc1cccc(/C=N/Nc2cc(N3CCOCC3)nc(OCC(O)c3cccc[n+]3[O-])n2)c1 (stereo not shown) [STA-6048]
vacuolation in cells [1]: cause vacuolation in cells at comparable concentrations
plasma concentration factor (for Apilimod Equivalent Concentrations) [3]: 0.26

Structure (SMILES): Cc1cccc(/C=N/Nc2cc(N3CCOCC3)nc(OCCc3ccccn3)n2)c1 [apilimod free base]
fraction unbound [4]: < 0.01
fraction unbound [5]: < 0.01
fraction unbound [6]: < 0.01

Structure (SMILES): Cc1cccc(/C=N/Nc2cc(N3CCOCC3)nc(OCCc3ccccn3)n2)c1 [apilimod]
IC50 [7]: 250 to 300 nM
IC50 [8]: 19.7 nM
IC50 [9]: 28.8 nM
IC50 [10]: 117 nM
IC50 [11]: 13.7 nM
apilimod-induced cytotoxicity [12]: not cytotoxic; also recorded: insensitive
NHL cell lines tested that were sensitive to apilimod ([13]; non-Hodgkin's Lymphoma cell lines): over 50%
cell lines identified as sensitive to apilimod-induced cytotoxicity ([13]; of 122 human cancer cell lines): 35 cell lines
apoptosis (Caspase-3/7 marker) [14]: increased apoptosis
autophagy (autophagic vacuoles) [15]: induced autophagy in a dose-dependent manner
apilimod concentration at which vacuole formation in cells was observed ([1]; as low as): 20 nM
vacuolization ([1]; live cells, 500 nM, 24 h): induces vacuolization
IC20 [16]: 10 nM
Apilimod Ave. Plasma Conc. ([17]; Group 3: S.C. pump ~15 mg/kg/d (DRW) + I.P. 30 mg/kg (MC)): 0.682 µM
Apilimod Ave. Plasma Conc. ([17]; Group 7: S.C. pump ~15 mg/kg/d (DRW) + I.P. 30 mg/kg (DRD)): 0.613 µM
Apilimod Ave. Plasma Conc. ([17]; Group 8: S.C. pump ~30 mg/kg/d (DRW) + I.P. 30 mg/kg (DRD)): 1.76 µM
Apilimod Ave. Plasma Conc. ([17]; Group 9: S.C. pump ~15 mg/kg/d (DRW) only): 0.755 µM
Apilimod Ave. Plasma Conc. ([17]; Group 10: S.C. pump ~30 mg/kg/d (DRW) only): 1.87 µM
sustained blood concentration of apilimod ([17]; S.C. osmotic mini-pump 15 mg/kg/day (bis-mesylate salt)): > 0.5 µM
sustained blood concentration of apilimod ([17]; S.C. osmotic mini-pump 30 mg/kg/day (bis-mesylate salt)): > 1 µM
cytotoxicity [18]: not cytotoxic
cytotoxicity [19]: not cytotoxic
cytotoxicity [20]: not cytotoxic
cytotoxicity [21]: not cytotoxic
cytotoxicity [22]: not cytotoxic
IC20 [23]: 500 nM

Kd [2]: 0.061 nM
mean Cmax relative to apilimod [24]: somewhat less than half
Structure (SMILES): Cc1cccc(/C=N/Nc2cc(N3CCOCC3)nc(OCCc3cccc[n+]3[O-])n2)c1 [STA-5944]
vacuolation in cells [1]: cause vacuolation in cells at comparable concentrations
plasma concentration factor (for Apilimod Equivalent Concentrations) [3]: 0.52

Kd [2]: 0.09 nM
mean Cmax relative to apilimod [24]: somewhat less than half
Structure (SMILES): Cc1cccc(/C=N/Nc2cc(N3CCOCC3)nc(OCC(O)c3ccccn3)n2)c1 (stereo not shown) [STA-5908]
vacuolation in cells [1]: cause vacuolation in cells at comparable concentrations
plasma concentration factor (for Apilimod Equivalent Concentrations) [3]: 0.68
